Experimental data reported in patent publication US20260337153A1, “IONIZABLE AMINE LIPIDS” (Intellia Therapeutics, Inc., priority 2023, published 2026).
Several values for one entry are separate records, joined by “and”; a condition that tells them apart may be missing. Identical values can stand only once. Like-named read-outs stand apart in the source and are kept apart here.

Key:
Assay type in all cases: physicochemical
[1] = LNP average particle size and polydispersity by dynamic light scattering; settings: sgRNA:mRNA 1:2; for Number mean (average particle size) / PDI (polydispersity index) / Z-avg (average particle size): LNP with 50% ionizable lipid, 3% C13 Ether (LNP #1, Compound 53: 3% PEG2K-DMG instead)
Protocol: Dynamic Light Scattering (“DLS”) is used to characterize the polydispersity index (“pdi” or “PDI”) and size of the LNPs of the present disclosure. DLS measures the scattering of light that results from subjecting a sample to a light source. PDI, as determined from DLS measurements, represents the distribution of particle size (around the mean particle size) in a population, with a perfectly uniform population having a PDI of zero.
(§1) LNP compositions are analyzed for average particle size, polydispersity index (pdi), total RNA content, encapsulation efficiency of RNA, and zeta potential. LNP compositions may be further characterized by lipid analysis, AF4-MALS, NTA, and/or cryo-EM.
Average particle size and polydispersity are measured by dynamic light scattering (DLS) using a Malvern Zetasizer DLS instrument. LNP samples were diluted with PBS buffer prior to being measured by DLS. Z-average diameter (“Z-avg”) which is an intensity-based measurement of average particle size was reported along with number average diameter (“number mean”) and PDI. A Malvern Zetasizer instrument is also used to measure the zeta potential of the LNP. Samples are diluted 1:17 (50 μL into 800 μL) in 0.1×PBS, pH 7.4 prior to measurement.
(§2) In vivo editing efficiency for materials delivered with formulations including various amine lipid (or ionizable lipid) compounds in Experiments 1 through 14 as described in Tables 3 and 4 was assessed. Editing was measured using G000534 (SEQ ID NO: 5) which targets the rat TTR gene. Lipids described above were assessed for efficacy through in vivo editing experiments. LNPs were formulated at a 1:2 w/w ratio of sgRNA (SEQ ID NO: 5) and Cas9 mRNA (SEQ ID NO: 3). In Experiments 1 through 13, lipid components of the LNP are formulated in a molar ratio of 50% ionizable lipid, 38% cholesterol, 9% DSPC, and 3% PEG2K-DMG. In Experiment 14, lipid components of the LNP are formulated in a molar ratio of 50% ionizable lipid, 38% cholesterol, 9% DSPC, and 3% C13 Ether. The final LNPs used in different in vivo editing experiments were characterized to determine the encapsulation efficiency (% E), polydispersity index (PDI), and average particle size (Z-avg and number mean) according to the analytical methods provided above. The pKa values of each of the following ionizable lipids were also measured to be in the range of about 5.8 to about 7.6.
(§3) In vivo editing efficiency for materials delivered with formulations including various combinations of amine lipid (or ionizable lipid) and PEG lipid compounds was assessed as described in Tables 5 and 6. Editing was measured using G000534 (SEQ ID NO: 5) which targets the rat TTR gene. Lipids described above were assessed for efficacy through in vivo editing experiments. LNPs were formulated at a 1:2 w/w ratio of sgRNA (SEQ ID NO: 5) and Cas9 mRNA (SEQ ID NO:3). Lipid components of the LNP are formulated in a molar ratio of 50% ionizable lipid, 38% cholesterol, 9% DSPC, and 3% of various PEG lipids (e.g., PEG2K-DMG, C13 Ether, C14 Ether). The final LNPs used in different in vivo editing experiments were characterized to determine the encapsulation efficiency (% E), polydispersity index (PDI), and average particle size (Z-avg and number mean) according to the analytical methods provided above. The pKa values of each of the following ionizable lipids were also measured to be in the range of about 5.8 to about 7.6.
In vivo editing efficiency for materials delivered with formulations including various amine lipid (or ionizable lipid) compounds as described in Tables 7 and 8 was assessed. Editing was measured using G000534 (SEQ ID NO: 5) which targets the rat TTR gene. Lipids described above were assessed for efficacy through in vivo editing experiments. LNPs were formulated at a 1:2 w/w ratio of sgRNA (SEQ ID NO: 5) and Cas9 mRNA (SEQ ID NO: 3). Lipid components of the LNP were formulated in a molar ratio of 50% ionizable lipid, 38% cholesterol, 9% DSPC, and 3% C13 Ether. […]

[2] = pKa of unformulated amine lipid by TNS fluorescence
Protocol: The pKa of each amine lipid was determined according to the method in Jayaraman, et al. (Angew Chem Int Ed Engl 51(34), 2012, 8529-8533) with the following adaptations. The pKa was determined for unformulated amine lipid in ethanol. Lipid stock solutions (2.94 mM) were diluted into Sodium Phosphate Buffers (0.1 M, Boston Bioproducts) of different pH (pH-range: 4.5-9.0) yielding a final lipid concentration of approx. 100 μM. The test samples were supplemented with TNS {6-(p-Toluidino)-2-naphthalenesulfonic acid sodium salt}, incubated and the fluorescence intensity was measured using excitation and emission wavelengths of 321 nm and 448 nm, respectively. The recorded data were normalized and the respective pKa values were derived from sigmoidal fitting.

[3] = LNP encapsulation efficiency of RNA (Ribogreen fluorescence assay); settings: sgRNA:mRNA 1:2
Protocol: as §1
Encapsulation efficiency is calculated as (Total RNA−Free RNA)/Total RNA. A fluorescence-based assay (Ribogreen®, ThermoFisher Scientific) is used to determine total RNA concentration and free RNA. LNP samples are diluted appropriately with 1×TE buffer containing 0.2% Triton-X 100 to determine total RNA or 1×TE buffer to determine free RNA. Standard curves are prepared by utilizing the starting RNA solution used to make the compositions and diluted in 1×TE buffer+/−0.2% Triton-X 100. Diluted RiboGreen® dye (according to the manufacturer's instructions) is then added to each of the standards and samples and allowed to incubate for approximately 10 minutes at room temperature, in the absence of light. A SpectraMax M5 Microplate Reader (Molecular Devices) is used to read the samples with excitation, auto cutoff and emission wavelengths set to 488 nm, 515 nm, and 525 nm respectively. Total RNA and free RNA are determined from the appropriate standard curves. Alternatively, the total RNA concentration can be determined by a reverse-phase ion-pairing (RP-IP) HPLC method. Triton X-100 is used to disrupt the LNPs, releasing the RNA. The RNA is then separated from the lipid components chromatographically by RP-IP HPLC and quantified against a standard curve using UV absorbance at 260 nm.
as §2, §3
In vivo editing efficiency for materials delivered with formulations including various amine lipid (or ionizable lipid) compounds as described in Tables 7 and 8 was assessed. […]

[4] = Table 3, Experiments 1-13, LNP 50% ionizable lipid, 38% cholesterol, 9% DSPC, 3% PEG2K-DMG
[5] = sodium phosphate buffer, Table 2, unformulated amine lipid, TNS, read-out: Lipid pKa
[6] = LNP with 50% ionizable lipid, 38% cholesterol, 9% DSPC, 3% C13 Ether (LNP #1, Compound 53: 3% PEG2K-DMG instead)
[7] = Table 3, Experiment 14, LNP with 3% C13 Ether

Number mean [1, 4]	PDI [1, 4]	Z-avg [1, 4]	pKa [2, 5]	% E (encapsulation efficiency) [3, 4]	Structure (SMILES)	further results
64 nm	0.02	71 nm	6.4	99%	CCCCCCCCC(CCCCCCCC)OC(=O)CCCC(=O)OCC(COC(=O)CCCC(=O)OC(CCCCCCCC)CCCCCCCC)COC(=O)OCCCN(C)CC [Compound 30, O,O′-(2-((((3-(ethyl(methyl)amino)propoxy)carbonyl)oxy)methyl)propane-1,3-diyl) di(heptadecan-9-yl) diglutarate]	
87 nm	0.01	91 nm	6.38	97%	CCCCC/C=C\C/C=C\CCCCCCCC(=O)OCC(COC(=O)CCCC(=O)OC(CCCCCCCC)CCCCCCCC)COC(=O)N(C)CCN(CC)CC (stereo not shown) [Compound 49, 3-(((2-(diethylamino)ethyl)(methyl)carbamoyl)oxy)-2-((((9Z,12Z)-octadeca-9,12-dienoyl)oxy)methyl)propyl heptadecan-9-yl Glutarate]	
			6.33		CCCCCCCCC(CCCCCCCC)OC(=O)CCCC(=O)OCC(COC(=O)CCCC(=O)OC(CCCCCCCC)CCCCCCCC)COC(=O)CCCN(C)C [Compound 34, O,O′-(2-(((4-(dimethylamino)butanoyl)oxy)methyl)propane-1,3-diyl) di(heptadecan-9-yl) diglutarate]	Number mean [1, 7]: 61 nm; PDI [1, 7]: 0.032; Z-avg [1, 7]: 69 nm; % E (encapsulation efficiency) [3, 7]: 98%

Second part, the compound before the results:

Structure (SMILES)	Number mean [1, 4]	PDI [1, 4]	Z-avg [1, 4]	pKa [2, 5]	% E (encapsulation efficiency) [3, 4]	further results
CCCCC/C=C\C/C=C\CCCCCCCC(=O)OCC(CCCCCCCCC(=O)OC(CCCCCCCC)CCCCCCCC)COC(=O)OCCCN(CC)CC (stereo not shown) [Compound 9, 2-((((3-(diethylamino)propoxy)carbonyl)oxy)methyl)-11-(heptadecan-9-yloxy)-11-oxoundecyl (9Z,12Z)-octadeca-9,12-dienoate]	61 nm and 65 nm and 62 nm	0.03	68 nm and 73 nm	5.87	99%	
CCCCCCCCC(CCCCCCCC)OC(=O)CCCC(=O)OCC(COC(=O)CCCC(=O)OC(CCCCCCCC)CCCCCCCC)COC(=O)NCCN1CCCCC1 [Compound 28, di(heptadecan-9-yl) O,O′-(2-((((2-(piperidin-1-yl)ethyl)carbamoyl)oxy)methyl)propane-1,3-diyl) diglutarate]	60 nm	0.022	65 nm	6.2	99%	
CCCCC/C=C\C/C=C\CCCCCCCC(=O)OCC(COC(=O)CCC(OCCCCCCCC)OCCCCCCCC)COC(=O)OCCCN(CC)CC (stereo not shown) [Compound 53]			94 nm and 89 nm and 96 nm and 92 nm and 90 nm and 91 nm and 95 nm		98% and 99% and 94% and 97%	Number mean (average particle size) ([1]; 38% cholesterol, 9% DSPC): 71 nm; PDI (polydispersity index) ([1]; 38% cholesterol, 9% DSPC): 0.04; Z-avg (average particle size) ([1]; 38% cholesterol, 9% DSPC): 87 nm; Number mean ([1]; Table 5, PEG lipid C13 Ether): 80 nm; PDI ([1]; Table 5, PEG lipid C13 Ether): 0.02; Z-avg ([1]; Table 5, PEG lipid C13 Ether): 87 nm; Number mean ([1]; Table 5, PEG lipid C14 Ether): 90 nm; PDI ([1]; Table 5, PEG lipid C14 Ether): 0.01; Z-avg ([1]; Table 5, PEG lipid C14 Ether): 96 nm; Number mean ([1]; Table 5, PEG lipid PEG2K-DMG): 82 nm; PDI ([1]; Table 5, PEG lipid PEG2K-DMG): 0.01; Z-avg ([1]; Table 5, PEG lipid PEG2K-DMG): 87 nm; pKa ([2]; sodium phosphate buffer, additional ionizable lipids (53-61), unformulated amine lipid, TNS, read-out: Lipid pKa): 6.2; % E (encapsulation efficiency) [3, 6]: 98%; % E (encapsulation efficiency) ([3]; Table 5, PEG lipid C13 Ether): 97%; % E (encapsulation efficiency) ([3]; Table 5, PEG lipid C14 Ether): 99%; % E (encapsulation efficiency) ([3]; Table 5, PEG lipid PEG2K-DMG): 97%
CCCCC/C=C\C/C=C\CCCCCCCC(=O)OCC(CCCCC(=O)OC(CCCC)CCCC)COC(=O)NCCN(CC)CC (stereo not shown) [Compound 12, 2-((((2-(diethylamino)ethyl)carbamoyl)oxy)methyl)-7-(nonan-5-yloxy)-7-oxoheptyl (9Z,12Z)-octadeca-9,12-dienoate]	101 nm	0.03	108 nm	6.82	96%	
CCCCC/C=C\C/C=C\CCCCCCCC(=O)OCC(CCCCCCCCC(=O)OC(CCCCCCCC)CCCCCCCC)COC(=O)OCCCN(C)CC (stereo not shown) [Compound 11, 2-((((3-(ethyl(methyl)amino)propoxy)carbonyl)oxy)methyl)-11-(heptadecan-9-yloxy)-11-oxoundecyl (9Z,12Z)-octadeca-9,12-dienoate]	70 nm	0.02	78 nm	6.13	99%	
CCCCCCCCC(CCCCCCCC)OC(=O)CCCCCC(=O)OCC(COC(=O)CCCCCC(=O)OC(CCCCCCCC)CCCCCCCC)COC(=O)OCCCN1CCCC1 [Compound 64, 7,7′-di(heptadecan-9-yl) O′1,O1-(2-((((3-(pyrrolidin-1-yl)propoxy)carbonyl)oxy)methyl)propane-1,3-diyl) di(heptanedioate)]						Number mean (average particle size) ([1]; 38% cholesterol, 9% DSPC): 52 nm; PDI (polydispersity index) ([1]; 38% cholesterol, 9% DSPC): 0.01; Z-avg (average particle size) ([1]; 38% cholesterol, 9% DSPC): 63 nm; pKa ([2]; read-out: pKa): 6.4; % E (encapsulation efficiency) [3, 6]: 99%
CCCCC/C=C\C/C=C\CCCCCCCC(=O)OCC(CCCCCCCCC(=O)OC(CCCCCCCC)CCCCCCCCC)COC(=O)CCC(CCCC)OC(=O)NCCN(C)CC (stereo not shown) [Compound 26, 9-butyl-3-methyl-15-(9-(octadecan-9-yloxy)-9-oxononyl)-7,12-dioxo-8,13-dioxa-3,6-diazahexadecan-16-yl (9Z,12Z)-octadeca-9,12-dienoate]	76 nm	0.01	81 nm	6.36	98%	
